Laboratory results as given in article PMC8480782, “Efficient Dimerization Disruption of Leishmania infantum Trypanothione Reductase by Triazole-phenyl-thiazoles” (Journal of Medicinal Chemistry, 2021).

Columns and labels:
[1] = molecular target: T1, human glutathione-disulfide reductase (hGR) (Homo sapiens, UniProt P00390); test: hGR oxidoreductase activity, DTNB-coupled assay; assay type: biochemical
T1 construct: HIS (vector pRSETA); made in house
T1 sequence (P00390 44-522): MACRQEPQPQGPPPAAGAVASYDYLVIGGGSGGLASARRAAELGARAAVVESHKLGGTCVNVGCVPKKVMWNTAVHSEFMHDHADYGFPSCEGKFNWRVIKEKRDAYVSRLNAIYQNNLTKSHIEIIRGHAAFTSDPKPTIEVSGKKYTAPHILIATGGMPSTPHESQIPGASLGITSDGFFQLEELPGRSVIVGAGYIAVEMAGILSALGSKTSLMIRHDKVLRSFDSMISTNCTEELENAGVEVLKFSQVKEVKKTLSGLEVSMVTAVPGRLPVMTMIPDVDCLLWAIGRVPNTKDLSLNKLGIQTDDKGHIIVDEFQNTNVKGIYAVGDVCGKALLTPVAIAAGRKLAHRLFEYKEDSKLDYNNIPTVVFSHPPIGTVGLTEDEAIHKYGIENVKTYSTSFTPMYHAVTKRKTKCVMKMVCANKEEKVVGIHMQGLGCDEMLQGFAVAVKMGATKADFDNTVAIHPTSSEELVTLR
Description: The DNA coding sequences for Homo sapiens GR, T. brucei TryR, and T. congolense TryR were polymerase chain reaction (PCR)-amplified and cloned in the pRSETA plasmid. The DNA coding for hGR (transcript variant 1; NCBI Reference Sequence: NM_000637.5) was purchased from GeneScript. Genomic DNA from T. congolense parasites was kindly provided by Dr. Stefan Magez (University of Vrije, Brussels). Genomic DNA from the T. brucei S16 cell line was kindly provided by José M. Pérez-Victoria. Instituto de Parasitología y Biomedicina “López—Neyra” CSIC. HIS-tagged recombinant T. brucei and T. congolense TryRs (TbTryR and TcoTryR, respectively) were purified from E. coli as already explained for LiTryR.
hGR oxidoreductase activity was determined spectrophotometrically using a DTNB-coupled assay. Briefly, reactions were carried out at 37 °C in 250 μL of HEPES buffer (pH 7.5, 40 mM) containing EDTA (1 mM), NADP^+, (60 μM), DTNB (150 μM), oxidized glutathione (50 μM), NADPH (300 μM), glycerol (0.02%), DMSO (1.75%), and recombinant hGR (7 nM). […] TNB concentration was obtained by multiplying the absorbance values by 100 (50 μM TNB generates 0.5 arbitrary units of absorbance at 412 nm). All of the assays were conducted in at least three independent experiments. Data were analyzed using a nonlinear regression model with GraFit 6 software (Erithacus, Horley, Surrey, U.K.).

[2] = Cytotoxicity in THP-1 monocyte-derived macrophages (LDH activity); assay type: cell-based, human; conditions: human; 75 μM (maximum concentration assayed); read-out: Cell viability of amastigote-infected THP-1 monocyte-derived macrophages at 75 μM
Method in brief: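 PMA-differentiated THP-1 macrophages, infected with GFP-expressing amastigotes, were treated 72 h at 37 °C in RPMI with 10% horse serum. After SDS lysis, LDH activity measured via lactate/NAD+/NBT formazan formation at 570 nm (Tris pH 8.9, 37 °C); CC50 by nonlinear regression.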

[3] = molecular target: T2, LiTryR (Leishmania infantum, UniProt A4HSF7); test: Trypanothione-dependent NADPH oxidation assay (initial velocities); assay type: biochemical
T2 construct: HIS (N); made in house; host or cells: E. coli BL21 (DE3) Rossetta
T2 sequence (A4HSF7 1-491): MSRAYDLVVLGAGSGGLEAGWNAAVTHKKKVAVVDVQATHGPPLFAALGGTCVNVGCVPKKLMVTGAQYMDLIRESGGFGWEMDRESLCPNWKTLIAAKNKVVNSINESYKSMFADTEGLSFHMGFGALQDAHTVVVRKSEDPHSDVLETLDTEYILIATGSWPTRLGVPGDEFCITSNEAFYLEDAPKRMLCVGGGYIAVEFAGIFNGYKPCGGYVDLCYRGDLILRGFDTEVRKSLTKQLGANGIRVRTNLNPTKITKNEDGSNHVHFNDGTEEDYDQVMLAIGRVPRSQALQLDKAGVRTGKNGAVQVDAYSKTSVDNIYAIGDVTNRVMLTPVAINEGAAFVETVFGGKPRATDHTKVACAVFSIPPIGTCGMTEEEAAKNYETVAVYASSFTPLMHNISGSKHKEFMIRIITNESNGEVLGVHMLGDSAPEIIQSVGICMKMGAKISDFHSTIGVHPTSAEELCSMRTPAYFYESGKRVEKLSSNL
Procedure: Despite the loss of activity observed during the reaction, dependency of the initial velocities (vi) on 19a and TS2 concentrations could be fitted to a model in which a rapid equilibrium is reached between the free enzyme and inhibitor (E + I) and the enzyme/inhibitor (EI) complex (Scheme 4). This analysis, based on vi values, was performed both in a DTNB-coupled assay and in a direct NADPH-oxidation assay (Figure S1 and Table S1).
Figure S1. Noncompetitive hyperbolic inhibition of Li TryR by 19a. Initial velocities were used for determination of the KKi value and assessment of the inhibition modality of 19a by two different methods: DTNB-coupled assay (absorbance readings at 412 nm) (A) and trypanothione- dependent NADPH oxidation assay (absorbance readings at 340 nm) (B).
Lineweaver–Burk plots of reciprocal initial velocities ( vi) versus reciprocals of four TS2 concentrations (12.5, 25, 50 and 100 μM) are shown. Experimental conditions in both experiments were similar to those described in the experimental section except that for the NADPH oxidation assay NADPH concentration was raised to 500 µM, NADP+ to 100 µM and 4.8 mM of oxidized glutathione was added. Data were f itted using the hyperbolic noncompetitive- mode equation described by Leskovac: […]
Table S1. Estimation of β and Ki in the noncompetitive hyperbolic inhibition mechanism by […]

Row | SMILES | inhibitory activity against hGR [1] | viability at 72 h, 75 µM [2] [%] | other results
1 | NCCCCc1cn(-c2ccc(-c3nc(CCc4ccc5c(c4)CCO5)cs3)c(OCCN3CCNC3=O)c2)nn1.O=C(O)C(F)(F)F [12r] | none of these compounds showed any inhibitory activity |  | 
2 | NCCCCc1cn(-c2ccc(-c3nc(CCc4ccc(-c5ccccc5)cc4)cs3)c(OCCN3CCNC3=O)c2)nn1.O=C(O)C(F)(F)F [12c, 1-(2-(2-(4-(2-([1,1′-Biphenyl]-4-yl)ethyl)thiazol-2-yl)-5-(4-(4-ammoniumbutyl)-1H-1,2,3-triazol-1-yl)phenoxy)ethyl)imidazolidin-2-one 2,2,2-Trifluoroacetate] |  | 100 | 
3 | NCCCc1cn(-c2ccc(-c3nc(CCc4ccc(-c5ccccc5)cc4)cs3)c(OCCN3CCNC3=O)c2)nn1.O=C(O)C(F)(F)F [12i] |  | 100 | 
4 | NCCCCc1cn(-c2ccc(-c3nc(-c4ccc(Oc5ccccc5)cc4)c(-c4ccccc4)s3)c(OCCN3CCNC3=O)c2)nn1.O=C(O)C(F)(F)F [19c, 1-(2-(5-(4-(4-Ammoniobutyl)-1H-1,2,3-triazol-1-yl)-2-(4-([4-phenyloxyphenyl]-1-yl)-5-phenylthiazol-2-yl)phenoxy)ethyl)imidazolidin-2-one 2,2,2-Trifluoroacetate] |  | 63 | 
5 | NCCCCc1cn(-c2ccc(-c3nc(-c4ccccc4)c(-c4ccccc4)s3)c(OCCN3CCNC3=O)c2)nn1.O=C(O)C(F)(F)F [19a, 1-(2-(5-(4-(4-Ammoniobutyl)-1H-1,2,3-triazol-1-yl)-2-(4,5-diphenylthiazol-2-yl)phenoxy)ethyl)imidazolidin-2-one 2,2,2-Trifluoroacetate] | none of these compounds showed any inhibitory activity |  | Ki [3]: 2500 ± 700 nM; β, noncompetitive hyperbolic inhibition mechanism ([3]; NADPH oxidation assay, initial velocities, alpha value of 1): 0.2 ± 0.1
6 | NCCCCc1cn(-c2ccc(-c3nc(-c4ccccc4)cs3)c(OCCN3CCNC3=O)c2)nn1.O=C(O)C(F)(F)F [12n] | none of these compounds showed any inhibitory activity |  | 
7 | NCCCCc1cn(-c2ccc(-c3nc(CCc4ccc5c(c4)CCCN5)cs3)c(OCCN3CCNC3=O)c2)nn1.O=C(O)C(F)(F)F.O=C(O)C(F)(F)F [12q] |  | 67 | 
